Reference: ChEMBL document CHEMBL5550169, “A consensus reverse docking approach for identification of a competitive inhibitor of acetyltransferase enhanced intracellular survival protein from Mycobacterium tuberculosis” (Bioorg Med Chem, 2024)
≈ marks a conversion by molar mass, not a printed value.

B1: N-acetyltransferase Eis (Mycobacterium tuberculosis (strain ATCC 25618 / H37Rv)), P9WFK7 (protein)
chain: MTVTLCSPTEDDWPGMFLLAAASFTDFIGPESATAWRTLVPTDGAVVVRDGAGPGSEVVGMALYMDLRLTVPGEVVLPTAGLSFVAVAPTHRRRGLLRAMCAELHRRIADSGYPVAALHASEGGIYGRFGYGPATTLHELTVDRRFARFHADAPGGGLGGSSVRLVRPTEHRGEFEAIYERWRQQVPGGLLRPQVLWDELLAECKAAPGGDRESFALLHPDGYALYRVDRTDLKLARVSELRAVTADAHCALWRALIGLDSMERISIITHPQDPLPHLLTDTRLARTTWRQDGLWLRIMNVPAALEARGYAHEVGEFSTVLEVSDGGRFALKIGDGRARCTPTDAAAEIEMDRDVLGSLYLGAHRASTLAAANRLRTKDSQLLRRLDAAFASDVPVQTAFEF

Tests used:
[1] = tested on: Mycobacterium tuberculosis; assay: Antibacterial activity against Mycobacterium tuberculosis H37Ra measured after 7 days by resazurin reduction microplate assay; type: functional; conditions: 168 h, time 7 day
N-acetyltransferase Eis [2] = molecular target: T1, N-acetyltransferase Eis (Mycobacterium tuberculosis (strain ATCC 25618 / H37Rv), UniProt P9WFK7); assay: Inhibition of Mycobacterium tuberculosis H37Rv Eis protein using kanamycin as substrate preincubated for 10 mins followed by AcCoA addition and measured every 30 secs for 20 mins
T1 sequence (P9WFK7 whole entry): B1 chain

[3] = tested on: Mycobacterium tuberculosis; assay: Antibacterial activity against Mycobacterium tuberculosis H37Rv assessed as reduction in pellet formation measured after 7 to 14 days by alamar blue assay; type: functional; conditions: time 7-14 day
[4] = tested on: Mycobacterium tuberculosis; assay: Antibacterial activity against Mycobacterium tuberculosis IAR2 assessed as reduction in pellet formation measured after 7 to 14 days by alamar blue assay; type: functional; conditions: time 7-14 day
[5] = tested on: Mycobacterium tuberculosis; assay: Antibacterial activity against Mycobacterium tuberculosis H37Ra measured after 7 days in presence of isoniazid by resazurin reduction microplate assay based checkerboard assay; type: functional; conditions: 168 h, time 7 day
[6] = tested on: Mycobacterium tuberculosis; assay: Antibacterial activity against Mycobacterium tuberculosis H37Ra measured after 7 days in presence of rifampicin by resazurin reduction microplate assay based checkerboard assay; type: functional; conditions: 168 h, time 7 day
[7] = tested on: Mycobacterium tuberculosis; assay: Antibacterial activity against Mycobacterium tuberculosis H37Ra measured after 7 days in presence of ethambutol by resazurin reduction microplate assay based checkerboard assay; type: functional; conditions: 168 h, time 7 day
[8] = tested on: Mycobacterium tuberculosis; assay: Antibacterial activity against Mycobacterium tuberculosis H37Ra measured after 7 days in presence of moxifloxacin by resazurin reduction microplate assay based checkerboard assay; type: functional; conditions: 168 h, time 7 day
[9] = tested on: Mycobacterium tuberculosis; assay: Additive antibacterial activity against Mycobacterium tuberculosis H37Ra assessed as isoniazid MIC at 3 to 50 uM measured after 7 days by resazurin reduction microplate assay based checkerboard assay; type: functional; conditions: 168 h, dose 3-50 µM, time 7 day
[10] = tested on: Mycobacterium tuberculosis; assay: Additive antibacterial activity against Mycobacterium tuberculosis H37Ra assessed as rifampicin MIC at 3 to 50 uM measured after 7 days by resazurin reduction microplate assay based checkerboard assay; type: functional; conditions: 168 h, dose 3-50 µM, time 7 day
[11] = tested on: Mycobacterium tuberculosis; assay: Additive antibacterial activity against Mycobacterium tuberculosis H37Ra assessed as ethambutol MIC at 3 to 50 uM measured after 7 days by resazurin reduction microplate assay based checkerboard assay; type: functional; conditions: 168 h, dose 3-50 µM, time 7 day
[12] = tested on: Mycobacterium tuberculosis; assay: Additive antibacterial activity against Mycobacterium tuberculosis H37Ra assessed as moxifloxacin MIC at 3 to 50 uM measured after 7 days by resazurin reduction microplate assay based checkerboard assay; type: functional; conditions: 168 h, dose 3-50 µM, time 7 day
[13] = tested on: Mycobacterium tuberculosis; assay: Additive antibacterial activity against Mycobacterium tuberculosis H37Ra assessed as fractional inhibitory concentration index at 3 to 50 uM measured after 7 days in presence of isoniazid by resazurin reduction microplate assay based checkerboard assay; type: functional; conditions: dose 3-50 µM; time 7 day
[14] = tested on: Mycobacterium tuberculosis; assay: Additive antibacterial activity against Mycobacterium tuberculosis H37Ra assessed as fractional inhibitory concentration index at 3 to 50 uM measured after 7 days in presence of rifampicin by resazurin reduction microplate assay based checkerboard assay; type: functional; conditions: dose 3-50 µM; time 7 day
[15] = tested on: Mycobacterium tuberculosis; assay: Additive antibacterial activity against Mycobacterium tuberculosis H37Ra assessed as fractional inhibitory concentration index at 3 to 50 uM measured after 7 days in presence of ethambutol by resazurin reduction microplate assay based checkerboard assay; type: functional; conditions: dose 3-50 µM; time 7 day
[16] = tested on: Mycobacterium tuberculosis; assay: Additive antibacterial activity against Mycobacterium tuberculosis H37Ra assessed as fractional inhibitory concentration index at 3 to 50 uM measured after 7 days in presence of moxifloxacin by resazurin reduction microplate assay based checkerboard assay; type: functional; conditions: dose 3-50 µM; time 7 day
N-acetyltransferase Eis [17] = molecular target: T1, N-acetyltransferase Eis; assay: Inhibition of Mycobacterium tuberculosis H37Rv Eis protein using kanamycin as substrate preincubated for 10 mins followed by AcCoA addition and measured every 30 secs for 30 mins
N-acetyltransferase Eis [18] = molecular target: T1, N-acetyltransferase Eis; assay: Competitive inhibition of Mycobacterium tuberculosis H37Rv Eis protein using varying concentrations of kanamycin as substrate assessed as inhibition constant by Lineweaver-Burk plot analysis
[19] = molecular target: T2, N-acetyltransferase Eis (Mycobacterium tuberculosis (strain ATCC 25618 / H37Rv)) (UniProt P9WFK7); assay: Binding affinity to Mycobacterium tuberculosis H37Rv Eis protein assessed as gibbs free energy
T2 sequence (whole entry): B1 chain

[20] = compound: COc1ccc(C(=O)CSc2nc3ccccc3c(=N)n2-c2ccccc2)cc1; assay: Competitive inhibition of Mycobacterium tuberculosis H37Rv Eis protein using varying concentrations of kanamycin as substrate assessed as Km at 6.25 uM by Lineweaver-Burk plot analysis (reference value: 448 +/- 99 microM)
[21] = compound: COc1ccc(C(=O)CSc2nc3ccccc3c(=N)n2-c2ccccc2)cc1; assay: Competitive inhibition of Mycobacterium tuberculosis H37Rv Eis protein using varying concentrations of kanamycin as substrate assessed as Km at 11 uM by Lineweaver-Burk plot analysis (reference value: 448 +/- 99 microM)
[22] = compound: COc1ccc(C(=O)CSc2nc3ccccc3c(=N)n2-c2ccccc2)cc1; assay: Competitive inhibition of Mycobacterium tuberculosis H37Rv Eis protein using varying concentrations of kanamycin as substrate assessed as Km at 15 uM by Lineweaver-Burk plot analysis (reference value: 448 +/- 99 microM)
[23] = compound: COc1ccc(C(=O)CSc2nc3ccccc3c(=N)n2-c2ccccc2)cc1; assay: Competitive inhibition of Mycobacterium tuberculosis H37Rv Eis protein using varying concentrations of kanamycin as substrate assessed as Vmax at 6.25 uM by Lineweaver-Burk plot analysis (reference value: 119 +/- 11 microM)
[24] = compound: COc1ccc(C(=O)CSc2nc3ccccc3c(=N)n2-c2ccccc2)cc1; assay: Competitive inhibition of Mycobacterium tuberculosis H37Rv Eis protein using varying concentrations of kanamycin as substrate assessed as Vmax at 11 uM by Lineweaver-Burk plot analysis (reference value: 119 +/- 11 microM)
[25] = compound: COc1ccc(C(=O)CSc2nc3ccccc3c(=N)n2-c2ccccc2)cc1; assay: Competitive inhibition of Mycobacterium tuberculosis H37Rv Eis protein using varying concentrations of kanamycin as substrate assessed as Vmax at 15 uM by Lineweaver-Burk plot analysis (reference value: 119 +/- 11 microM)

| Molecule | MIC [1] [µM] | further results |
| --- | --- | --- |
| N#C/C(=C\c1c[nH]c2ccccc12)C(=O)N1CCOCC1 | > 200 | – |
| O=C(CSc1nc2sc3c(c2c(=O)n1Cc1ccccc1)CCCC3)c1ccc(Cl)c(Cl)c1 | > 200 | – |
| CN1CCCC(CSc2nc(N)c3c4c(sc3n2)CCCC4)C1 (stereo unspecified) | – | IC50 (N-acetyltransferase Eis [2]): 0.15 µM |
| C=CCn1c(SCC(=O)c2ccc(C)cc2)nc2sc3c(c2c1=O)CCCC3 | > 200 | – |
| C=CCn1c(SCC(=O)c2ccccc2)nc2ccccc2c1=N | 200 (≈ 67.1 µg/mL) | – |
| COC(=O)/C(C#N)=C/c1c[nH]c2ccccc12 | > 200 | – |
| N#C/C(=C\c1c[nH]c2ccccc12)C(=O)N1CCSCC1 | > 200 | – |
| N#C/C(=C\c1c[nH]c2ccccc12)C(=O)NCCc1ccccc1 | > 200 | – |
| O=C(CSc1nc2sc3c(c2c(=O)n1Cc1ccccc1)CCCC3)c1cccc(O)c1 | 200 (≈ 92.5 µg/mL) | – |
| N#C/C(=C\c1c[nH]c2ccccc12)C(=O)N1CCCC1 | > 200 | – |
| CCCCOC(=O)/C(C#N)=C/c1c[nH]c2ccccc12 | > 200 | – |
| C=CCn1c(SCC(=O)c2ccc(Cl)cc2)nc2sc3c(c2c1=O)CCCC3 | > 200 | – |
| C=CCn1c(SCC(=O)c2ccc(Cl)c(Cl)c2)nc2sc3c(c2c1=O)CCCC3 | > 200 | – |
| Cc1cc(C)c2c(C(=O)NC3CCCCCC3)c[nH]c2c1 | – | MIC [3]: 4 ng/mL (≈ 0.0141 µM); MIC [4]: ≥ 250 ng/mL |
| CCOC(=O)/C(C#N)=C/c1c[nH]c2ccccc12 | > 200 | – |
| CC(C)OC(=O)/C(C#N)=C/c1c[nH]c2ccccc12 | 100 (≈ 25.4 µg/mL) | – |
| N#C/C(=C\c1c[nH]c2ccccc12)C(=O)NCCCc1ccccc1 | > 200 | – |
| C=CCn1c(SCC(=O)c2ccccc2)nc2ccccc2c1=O | 200 (≈ 67.3 µg/mL) | – |
| O=C(CSc1nc2sc3c(c2c(=O)n1Cc1ccccc1)CCCC3)c1cccc(Cl)c1 | > 200 | – |
| N=c1c2ccccc2nc(SCC(=O)c2ccc(Cl)cc2)n1-c1ccccc1 | > 200 | – |
| C=CCn1c(SCC(=O)c2ccc(Cl)cc2)nc2ccccc2c1=N | > 200 | – |
| COc1ccc(C(=O)CSc2nc3sc4c(c3c(=O)n2-c2ccccc2)CCCC4)cc1 | > 200 | – |

| Molecule | MIC [1] [µM] | further results |
| --- | --- | --- |
| NNC(=O)c1ccncc1 [ISONIAZID] | 0.23 (≈ 0.0315 µg/mL) | – |
| N#C/C(=C\c1c[nH]c2ccccc12)C(=O)NCCN1CCCCC1 | 200 (≈ 64.5 µg/mL) | – |
| Cc1cc(C)c2c(C(=O)NC3CCCCC3)c[nH]c2c1 | – | MIC [3]: 4 ng/mL (≈ 0.0148 µM); MIC [4]: ≥ 250 ng/mL |
| O=C(CSc1nc2sc3c(c2c(=O)n1-c1ccccc1)CCCC3)c1ccc(Cl)c(Cl)c1 | > 200 | – |
| N#C/C(=C\c1c[nH]c2ccccc12)C(=O)Nc1ccccc1 | > 200 | – |
| Cc1ccc2[nH]cc(/C=C(\C#N)C(=O)NCCCc3ccccc3)c2c1 | > 200 | – |
| CC[C@@H](CO)NCCN[C@@H](CC)CO [ETHAMBUTOL] | 8 (≈ 1.63 µg/mL) | – |
| N#CCC(=O)NC(=O)/C(C#N)=C/c1c[nH]c2ccccc12 | > 200 | – |
| C=CCn1c(SCC(=O)c2ccccc2)nc2sc3c(c2c1=O)CCCC3 | > 200 | – |
| O=C(CSc1nc2sc3c(c2c(=O)n1-c1ccccc1)CCCC3)c1ccc(Cl)cc1 | > 200 | – |
| O=C(CSc1nc2ccccc2c(=O)n1-c1ccccc1)c1ccccc1 | 200 (≈ 74.5 µg/mL) | – |
| O=C(CSc1nc2ccccc2c(=O)n1-c1ccccc1)c1ccc(Cl)cc1 | 200 (≈ 81.4 µg/mL) | – |
| Cc1ccc(C(=O)CSc2nc3sc4c(c3c(=O)n2Cc2ccccc2)CCCC4)cc1 | > 200 | – |
| N#C/C(=C\c1c[nH]c2ccccc12)C(=O)NCc1ccccc1 | > 200 | – |
| COc1c(N2C[C@@H]3CCCN[C@@H]3C2)c(F)cc2c(=O)c(C(=O)O)cn(C3CC3)c12 [MOXIFLOXACIN] | 0.2 (≈ 0.0803 µg/mL) | – |
| Cc1ccc(C(=O)CSc2nc3sc4c(c3c(=O)n2-c2ccccc2)CCCC4)cc1 | > 200 | – |
| C=CCn1c(SCC(=O)c2ccc(OC)cc2)nc2ccccc2c1=N | > 200 | – |
| O=C(CSc1nc2sc3c(c2c(=O)n1Cc1ccccc1)CCCC3)c1ccccc1 | > 200 | – |
| CO[C@H]1/C=C/O[C@@]2(C)Oc3c(C)c(O)c4c(O)c(c(/C=N/N5CCN(C)CC5)c(O)c4c3C2=O)NC(=O)/C(C)=C\C=C\[C@H](C)[C@H](O)[C@@H](C)[C@@H](O)[C@@H](C)[C@H](OC(C)=O)[C@@H]1C [RIFAMPIN] | 0.01 (≈ 0.00823 µg/mL) | – |
| N#C/C(=C\c1c[nH]c2cccc([N+](=O)[O-])c12)C(=O)NCCCc1ccccc1 | > 200 | – |
| COc1ccc(C(=O)CSc2nc3ccccc3c(=N)n2-c2ccccc2)cc1 | 50 (≈ 20.1 µg/mL) | MIC [5]: 50 µM; MIC [6]: 50 µM; MIC [7]: 50 µM; MIC [8]: 50 µM; MIC [9]: 0.23 µM; MIC [10]: 0.01 µM; MIC [11]: 8 µM; MIC [12]: 0.4 µM; fractional inhibitory concentration index (FICI) [13]: 2; fractional inhibitory concentration index (FICI) [14]: 2; fractional inhibitory concentration index (FICI) [15]: 2; fractional inhibitory concentration index (FICI) [16]: 3; IC50 (N-acetyltransferase Eis [17]): 11 µM; Ki (N-acetyltransferase Eis [18]): 14.4 µM; deltaG [19]: -7.04 kcal/mol |
| B1 | – | Km [20]: 717 µM; Km [21]: 721 µM; Km [22]: 632 µM; Vmax [23]: 112 µM/s; Vmax [24]: 108 µM/s; Vmax [25]: 94 µM/s |
